Measurements: ChEMBL document CHEMBL1201862, “PubChem BioAssay data set” (2004)
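48-hour exposure; five concentrations; linearly interpolated endpoints. GI50 is the concentration that inhibits growth by half.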 Active and inactive are the calls of the source. Cut-off read from the data, not from the text of the source: active = GI50 up to about 1.1 µM and inactive = higher.

What was measured:
Assay in all cases: NCI tumour cell line growth inhibition, 48 h
[1] = system: NCI-H226
[2] = system: 786-0
[3] = system: RXF 393
[4] = system: NCI-H23
[5] = system: HCC 2998
[6] = system: HCT-116
[7] = system: UACC-257
[8] = system: HCT-15
[9] = system: KM12
[10] = system: M14
[11] = system: SNB-19
[12] = system: HT-29
[13] = system: SW-620
[14] = system: OVCAR-5
[15] = system: MDA-MB-435
[16] = system: PC-3
[17] = system: COLO 205
[18] = system: MCF7
[19] = system: LOX IMVI
[20] = system: HL-60
[21] = system: SR
[22] = system: Hs-578T
[23] = system: SN12C
[24] = system: SK-MEL-5
[25] = system: SK-MEL-28
[26] = system: NCI-H522
[27] = system: T47D
[28] = system: MOLT-4
[29] = system: OVCAR-3
[30] = system: UO-31
[31] = system: SF-539
[32] = system: SF-268
[33] = system: U-251
[34] = system: OVCAR-4
[35] = system: MDA-N
[36] = system: ACHN
[37] = system: OVCAR-8
[38] = system: TK-10
[39] = system: A549
[40] = system: MDA-MB-231
[41] = system: SK-MEL-2
[42] = system: Malme-3M
[43] = system: SK-OV-3
[44] = system: HOP-62
[45] = system: K562
[46] = system: SF-295
[47] = system: HOP-92
[48] = system: SNB-75
[49] = system: UACC-62
[50] = system: NCI-H460
[51] = system: DU-145
[52] = system: A498
[53] = system: IGROV-1
[54] = system: CAKI-1
[55] = system: NCI/ADR-RES
[56] = system: RPMI-8226
[57] = system: EKVX
[58] = system: BT-549
[59] = system: CCRF-CEM

## COc1ccc(S(=O)(=O)Nc2ccc(-c3csc(N4C(=O)/C(=C/c5cccs5)N=C4c4ccccc4)n3)cc2)cc1Cl
[1]
  GI50: 65.5 µM (inactive)
[2]
  GI50: 57.5 µM (inactive)
[3]
  GI50: 29.5 µM (inactive)
[4]
  GI50: 21.5 µM (inactive)
[5]
  GI50: 44.7 µM (inactive)
[6]
  GI50: 30.9 µM (inactive)
[7]
  GI50: 46.3 µM (inactive)
[8]
  GI50: 24.9 µM
[9]
  GI50: 49.1 µM (inactive)
[10]
  GI50: 34.7 µM (inactive)
[11]
  GI50: 49.7 µM (inactive)
[12]
  GI50: > 100 µM (inactive)
[13]
  GI50: 50.9 µM (inactive)
[14]
  GI50: > 100 µM (inactive)
[15]
  GI50: 44 µM (inactive)
[16]
  GI50: 34.8 µM (inactive)
[17]
  GI50: 40.6 µM (inactive)
[18]
  GI50: 46.9 µM (inactive)
[19]
  GI50: 37 µM (inactive)
[20]
  GI50: 24.5 µM (inactive)
[21]
  GI50: 28.6 µM (inactive)
[22]
  GI50: 35.2 µM (inactive)
[23]
  GI50: 66.2 µM (inactive)
[24]
  GI50: 40.8 µM (inactive)
[25]
  GI50: 65.5 µM (inactive)
[26]
  GI50: 22.3 µM (inactive)
[27]
  GI50: 19.9 µM (inactive)
[28]
  GI50: 32.8 µM (inactive)
[29]
  GI50: 43.6 µM (inactive)
[30]
  GI50: 28.1 µM (inactive)
[31]
  GI50: 54.2 µM (inactive)
[32]
  GI50: 30.5 µM (inactive)
[33]
  GI50: 34.9 µM (inactive)
[34]
  GI50: 40.2 µM (inactive)
[35]
  GI50: 34.1 µM (inactive)
[36]
  GI50: 35.4 µM (inactive)
[37]
  GI50: 34 µM (inactive)
[38]
  GI50: 56.1 µM (inactive)
[39]
  GI50: 38.9 µM (inactive)
[40]
  GI50: 32.4 µM (inactive)
[41]
  GI50: 40.4 µM (inactive)
[42]
  GI50: 32.3 µM (inactive)
[43]
  GI50: > 100 µM (inactive)
[44]
  GI50: 4.08 µM (inactive)
[45]
  GI50: 38.7 µM (inactive)
[46]
  GI50: 10.4 µM (inactive)
[47]
  GI50: 22.5 µM (inactive)
[48]
  GI50: 44.8 µM (inactive)
[49]
  GI50: 31.1 µM (inactive)
[50]
  GI50: 41.1 µM (inactive)
[51]
  GI50: 42.2 µM (inactive)
[52]
  GI50: 24.3 µM (inactive)
[53]
  GI50: 30.5 µM (inactive)
[54]
  GI50: > 100 µM (inactive)
[55]
  GI50: 39.4 µM (inactive)

## O=C(NCCCN(CCCCN(CCCNC(=O)C(F)(F)F)Cc1ccc2ccccc2c1)Cc1ccc2ccccc2c1)C(F)(F)F
[1]
  GI50: > 100 µM (inactive)
[2]
  GI50: > 100 µM (inactive)
[3]
  GI50: 3.77 µM (inactive)
[5]
  GI50: 1.53 µM (inactive)
[6]
  GI50: 4.45 µM (inactive)
[7]
  GI50: 2.28 µM (inactive)
[8]
  GI50: 6.12 µM
[9]
  GI50: 5.83 µM (inactive)
[10]
  GI50: 1.99 µM (inactive)
[12]
  GI50: 1.44 µM (inactive)
[13]
  GI50: > 100 µM (inactive)
[14]
  GI50: > 100 µM (inactive)
[15]
  GI50: 1.9 µM (inactive)
[16]
  GI50: 6.95 µM (inactive)
[56]
  GI50: 2.81 µM (inactive)
[17]
  GI50: 1.95 µM (inactive)
[18]
  GI50: 1.95 µM (inactive)
[19]
  GI50: 4.36 µM (inactive)
[20]
  GI50: 0.74 µM (active)
[21]
  GI50: 2.7 µM (inactive)
[23]
  GI50: > 100 µM (inactive)
[24]
  GI50: 1.75 µM (inactive)
[25]
  GI50: 2.32 µM (inactive)
[26]
  GI50: 8.93 µM (inactive)
[27]
  GI50: 5.05 µM (inactive)
[28]
  GI50: 5.28 µM (inactive)
[29]
  GI50: > 100 µM (inactive)
[30]
  GI50: 2.33 µM (inactive)
[31]
  GI50: 4.62 µM (inactive)
[32]
  GI50: > 100 µM (inactive)
[33]
  GI50: 3.91 µM (inactive)
[34]
  GI50: 2.62 µM (inactive)
[57]
  GI50: > 100 µM (inactive)
[36]
  GI50: > 100 µM (inactive)
[37]
  GI50: > 100 µM (inactive)
[38]
  GI50: > 100 µM (inactive)
[58]
  GI50: 6.22 µM (inactive)
[59]
  GI50: > 78.2 µM (inactive)
[39]
  GI50: > 100 µM (inactive)
[40]
  GI50: > 100 µM (inactive)
[41]
  GI50: > 20 µM (inactive)
[43]
  GI50: > 100 µM (inactive)
[44]
  GI50: > 100 µM (inactive)
[45]
  GI50: 2.48 µM (inactive)
[46]
  GI50: > 28.6 µM (inactive)
[47]
  GI50: > 100 µM (inactive)
[48]
  GI50: > 100 µM (inactive)
[49]
  GI50: 2.31 µM (inactive)
[50]
  GI50: 2.21 µM (inactive)
[51]
  GI50: > 100 µM (inactive)
[52]
  GI50: > 100 µM (inactive)
[53]
  GI50: 7.87 µM (inactive)
[55]
  GI50: 73.5 µM (inactive)

## Cc1ccc(S(=O)(=O)N(CC(O)COc2ccccc2)c2c(F)cccc2F)cc1 (stereo not given)
[1]
  GI50: 21.9 µM (inactive)
[2]
  GI50: 20.7 µM (inactive)
[3]
  GI50: 10.5 µM (inactive)
[4]
  GI50: 18.5 µM (inactive)
[5]
  GI50: 21.1 µM (inactive)
[7]
  GI50: 21.8 µM (inactive)
[8]
  GI50: 16.1 µM
[9]
  GI50: 17.7 µM (inactive)
[10]
  GI50: 15.5 µM (inactive)
[11]
  GI50: 33.3 µM (inactive)
[12]
  GI50: 17.4 µM (inactive)
[13]
  GI50: 23 µM (inactive)
[14]
  GI50: 38 µM (inactive)
[15]
  GI50: 15.4 µM (inactive)
[16]
  GI50: 14.3 µM (inactive)
[56]
  GI50: 14.4 µM (inactive)
[17]
  GI50: 14.7 µM (inactive)
[18]
  GI50: 15.7 µM (inactive)
[19]
  GI50: 15.2 µM (inactive)
[20]
  GI50: 29.4 µM (inactive)
[21]
  GI50: 21.8 µM (inactive)
[22]
  GI50: 20 µM (inactive)
[23]
  GI50: 21.1 µM (inactive)
[24]
  GI50: 13.8 µM (inactive)
[25]
  GI50: 16.3 µM (inactive)
[27]
  GI50: 2.21 µM (inactive)
[28]
  GI50: 28.3 µM (inactive)
[29]
  GI50: 11.6 µM (inactive)
[30]
  GI50: 15.7 µM (inactive)
[31]
  GI50: 16.9 µM (inactive)
[32]
  GI50: 17.1 µM (inactive)
[33]
  GI50: 15.7 µM (inactive)
[34]
  GI50: 13.2 µM (inactive)
[35]
  GI50: 15.8 µM (inactive)
[57]
  GI50: 23.3 µM (inactive)
[36]
  GI50: 17.3 µM (inactive)
[37]
  GI50: 17 µM (inactive)
[38]
  GI50: 33.7 µM (inactive)
[59]
  GI50: 28.7 µM (inactive)
[39]
  GI50: 17.3 µM (inactive)
[40]
  GI50: 17.9 µM (inactive)
[41]
  GI50: 16.6 µM (inactive)
[42]
  GI50: 21 µM (inactive)
[43]
  GI50: 18.5 µM (inactive)
[44]
  GI50: 19.2 µM (inactive)
[45]
  GI50: 37.3 µM (inactive)
[46]
  GI50: 29.2 µM (inactive)
[47]
  GI50: 0.114 µM (active)
[48]
  GI50: 18.9 µM (inactive)
[49]
  GI50: 14.8 µM (inactive)
[50]
  GI50: 15.1 µM (inactive)
[51]
  GI50: 24.9 µM (inactive)
[52]
  GI50: 19.6 µM (inactive)
[54]
  GI50: 14.3 µM (inactive)
[55]
  GI50: 17.5 µM (inactive)

## COC(=O)CCc1ccc2c(c1)C(=O)CC2
[2]
  GI50: > 100 µM (inactive)
[3]
  GI50: > 100 µM (inactive)
[4]
  GI50: > 100 µM (inactive)
[5]
  GI50: > 100 µM (inactive)
[6]
  GI50: > 100 µM (inactive)
[7]
  GI50: > 100 µM (inactive)
[8]
  GI50: > 100 µM
[10]
  GI50: > 100 µM (inactive)
[11]
  GI50: > 100 µM (inactive)
[12]
  GI50: > 100 µM (inactive)
[13]
  GI50: > 100 µM (inactive)
[14]
  GI50: > 100 µM (inactive)
[15]
  GI50: > 100 µM (inactive)
[16]
  GI50: > 100 µM (inactive)
[56]
  GI50: > 100 µM (inactive)
[18]
  GI50: > 100 µM (inactive)
[19]
  GI50: > 100 µM (inactive)
[20]
  GI50: > 100 µM (inactive)
[21]
  GI50: > 100 µM (inactive)
[22]
  GI50: > 100 µM (inactive)
[24]
  GI50: > 100 µM (inactive)
[25]
  GI50: > 100 µM (inactive)
[26]
  GI50: > 100 µM (inactive)
[27]
  GI50: > 100 µM (inactive)
[28]
  GI50: > 100 µM (inactive)
[29]
  GI50: > 100 µM (inactive)
[30]
  GI50: > 100 µM (inactive)
[31]
  GI50: > 100 µM (inactive)
[32]
  GI50: > 100 µM (inactive)
[33]
  GI50: > 100 µM (inactive)
[34]
  GI50: > 100 µM (inactive)
[35]
  GI50: > 100 µM (inactive)
[57]
  GI50: > 100 µM (inactive)
[36]
  GI50: > 100 µM (inactive)
[37]
  GI50: > 100 µM (inactive)
[38]
  GI50: > 100 µM (inactive)
[59]
  GI50: > 100 µM (inactive)
[39]
  GI50: > 100 µM (inactive)
[40]
  GI50: > 100 µM (inactive)
[41]
  GI50: > 100 µM (inactive)
[42]
  GI50: > 100 µM (inactive)
[43]
  GI50: > 100 µM (inactive)
[44]
  GI50: > 100 µM (inactive)
[45]
  GI50: > 100 µM (inactive)
[46]
  GI50: > 100 µM (inactive)
[47]
  GI50: > 100 µM (inactive)
[48]
  GI50: 29.7 µM (inactive)
[50]
  GI50: > 100 µM (inactive)
[51]
  GI50: > 100 µM (inactive)
[52]
  GI50: > 100 µM (inactive)
[53]
  GI50: > 100 µM (inactive)
[55]
  GI50: > 100 µM (inactive)
